Measured values: patent US9738605B2, “Hybrid compounds of curcumin and melatonin as neuroprotectants for neurodegenerative disorders” (VIRGINIA COMMONWEALTH UNIVERSITY, priority 2013, dated 2017)
“Also recorded” adds a separate entry of the source.

Columns and labels:
MC65 cells [1] = test: Neuroprotection assay in MC65 cells (−TC, MTT)
Method: MC65 cells were washed twice with PBS, resuspended in Opti-MEM, and seeded in 96-well plates (4×10^4 cells/well). Indicated compounds were then added, and cells were incubated at 37° C. under +TC or −TC conditions for 72 h. Then, 10 μL of MTT (5 mg/mL in PBS) were added and the cells were incubated for another 4 h. Cell medium was then removed, and the remaining formazan crystals produced by the cellular reduction of MTT were dissolved in DMSO. Absorbance at 570 nm was immediately recorded using a FlexStation® 3 plate reader (Molecular Devices, CA).

Aβ42 [2] = biological target: T1, Aβ42 (Homo sapiens, UniProt P05067); test: Thioflavin T assay of Aβ42 fibril formation; format: biochemical; details: up to 100 μM, 48 h, ThT
T1 construct: purchased American Peptide, Inc. (Sunnyvale, Calif.)
Method: Briefly, 1 μL of each compound solution in DMSO (0.01 μM to 100 μM) was added to corresponding wells in a 96-well plate. Each concentration was prepared in independent triplicates and a solvent control was included. To each well, 9 μL of 25 μM Aβ42 in PBS (pH 7.4) was added, and then plates were incubated in dark at room temperature for 48 h. Next, 200 μL of a 5 μM ThT in 50 mM glycine solution (pH 8.0) was added to each well.

Aβ42 [3] = biological target: T1, Aβ42; test: AFM analysis of Aβ42 fibril and oligomer formation; format: biochemical; details: 1:1 ratio with Aβ42, 24 h
Method: Aβ42 oligomers and fibrils were prepared based on reported procedures.^43 Indicated compounds were incubated with Aβ42 at a 1:1 ratio for both conditions for 24 h. Samples were loaded on mica, washed extensively with water, and dried overnight at room temperature before AFM analysis. The morphology of the Aβ42 aggregates was assessed using an atomic force microscope (Dimension Icon, Bruker) operating in tapping mode in air. The scan rate was varied between 1 Hz and 0.5 Hz depending on the tracking quality. The silicon tips (Bruker mpp2100-100) have a sharpness of less than 5 nm and a force constant between 3 and 5 N/m along with a resonant frequency rated between […]. All images were taken with 512 points per line, with a 1:1 ratio. Images were processed using Nanoscope analysis software version 1.20 and Image-J (from the National Institutes of Health).

HT22 cells = test: Hydrogen peroxide toxicity assay in HT22 cells; format: cell-based, mouse; details: up to 0.3 μM, H2O2 500 μM, 24 h
Method: HT22 cells were seeded in 96-well plates (4×10^3 cells/well) in growth medium and incubated for 24 h at 37° C. The medium was removed and compounds were added at the indicated concentrations in fresh growth medium, and the cells were incubated for another 1 h. H2O2 was then added at a final concentration of 500 μM, and the plates were then incubated for 24 h. Cell viability was assessed by MTT assay as previously described. Values were expressed as a percentage relative to the negative (H2O2-free) control.

MC65 cells [4] = test: Rotenone protection assay in MC65 cells; format: cell-based; details: up to 1 μM, rotenone 10 μM, 48 h
Method: The medium was removed and compounds were added at the indicated concentrations in fresh growth medium, and the cells were incubated for another 2 h. Rotenone was then added at a final concentration of 10 μM, and the plates were then incubated for 48 h. Cell viability was assessed by MTT assay.

in vitro = details: PAMPA
Method: In the same assay, 10 commercial drugs with known CNS penetration were also tested as positive controls, and their experimental values were compared to reported values (Table 1).

APP/PS1 transgenic mice = test: Oral treatment of APP/PS1 transgenic AD mouse model; format: in vivo; details: 50 mg/kg oral gavage, 12 weeks, 4 month-old APP/PS1 mice
Method: FIG. 8A-D. AM24 (7) (50 mg/kg) oral gavage treatment in 4 month-old APP/PS1 transgenic animals during 12 weeks. Immunochemistry was performed using anti-Aβ 1-16 Clone 82E1 (1/1000, Mouse) in (A) control and (B) AM24-treated mice. Percent area of (C) Cortex (Cx) and (D) Cortex plus Hippocampus (CxHp) was measured. Statistical analysis was performed by T test *p<0.05. Experiment was assessed with APP/PS1-saline (n=4) and APP/PS1-AM24 (n=7) mice. Scale bar represents 500 μm.
FIG. 9A-C. AM24 (7) (50 mg/kg) oral gavage treatment during 12 weeks in 4 month-old APP/PS1 transgenic animals. Immunochemistry was performed using anti-Aβ 1-16 Clone 82E1 (1/1000, Mouse) in (A) control and (B) AM24-treated mice. (C) Percent area Hippocampus (Hp) was measured. Experiment was assessed with APP/PS1-saline (n=4) and APP/PS1-AM24 (n=7) mice. […] Scale bar represents 200 μm.
FIG. 10A-E. AM24 (7) (50 mg/kg) oral gavage treatment during 12 weeks in 4 month-old APP/PS1 transgenic animals. Immunochemistry in (A) control and (B) AM24-treated mice and (C) Western Blot were performed using anti-GFAP (1/250 and 1/2000 respectively, Rabbit). (D) Band Intensity was compared with saline treated APP/PS1 mice. (E) Percent area Hippocampus (Hp) was measured. Experiment was assessed with APP/PS1-saline (n=4) and APP/PS1-AM24 (n=7) mice. […] Scale bar represents 200 μm. […]
FIG. 15A-B. AM24 (7) (50 mg/kg) oral gavage treatment in 4 month-old APP/PS1 transgenic animals during 12 weeks. (A) Western-blot was performed using anti-HNE (1/2000, Rabbit) stress marker. (B) Band Intensity was compared with saline treated APP/PS1 mice. Experiment was assessed with APP/PS1-saline (n=4) and APP/PS1-AM24 (n=7) mice. Statistical analysis was performed by T test ** p<0.01.
FIG. 16A-B. AM24 (50 mg/kg) oral gavage treatment in 4 month-old APP/PS1 transgenic animals during 12 weeks. (A) Mitochondrial complex Western-blot was performed using OXPhOS cocktail antibody (1/2000, Mouse) to measure I, II, III and V Complex, and MTCO CIV for complex IV (1/2000, Mouse). (B) Band Intensity was compared with saline treated APP/PS1 mice. Experiment was assessed with APP/PS1-saline (n=4) and APP/PS1-AM24 (n=7) mice. Statistical analysis was performed by T test **p<0.01.
APP/PS1 (amyloid precursor protein/presenilin-1) transgenic mice are a well known model for Alzheimer's disease. In this study, APP/PS1 mice were treated with 50 mg/kg of AM24 (compound 7) and the effects on cell type/morphology and the levels of several neuroinflammatory and stress markers was observed. […] However, there was no decrease in hippocampal plaques (FIG. 9A-C). Additionally, there was no change in the expression of glial fibrillary acid protein (GFAP), a neuroinflammation marker, in the hippocampus of AM24 treated animals (FIG. 10A-E).

T1 sequence (P05067 672-713 limits assumed): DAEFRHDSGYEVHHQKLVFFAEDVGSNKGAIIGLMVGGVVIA

- inhibition of the formation of Aβ42 fibrils (Aβ42 [2]): no significant inhibition
- inhibition of fibrillization and oligomerization of Aβ42 (AFM) (Aβ42 [3]): no inhibition
- Papp (in vitro): 7.9 ± 0.6 ×10⁻⁶ cm/s
Structure (SMILES): COc1ccc2[nH]cc(CCNC(=O)CC(=O)CCc3ccc(O)cc3)c2c1 [Compound 7, 5-(4-hydroxy-phenyl)-3-oxo-pentanoic acid [2-(5-methoxy-1H-indol-3-yl)-ethyl]-amide]
- neuroprotection of MC65 cells from −TC induced cell death (MC65 cells [1]; 0.3 μM, −TC, 72 h, MTT): significant and comparable protection
- EC50 (MC65 cells [1]; MC65, 72 h, read-out: EC50 for neuroprotection of MC65 cells): 27.6 ± 9.4 nM
- protection from H2O2-induced cytotoxicity (HT22 cells): no protection
- protection from rotenone-induced cytotoxicity (MC65 cells [4]): did not show protection
- NADH Dehydrogenase-Complex I (mitochondrial complex Western blot) (APP/PS1 transgenic mice): powerful increase
- cortical and cortex/hippocampal amyloid plaques (APP/PS1 transgenic mice): significant decrease
- expression of 8-Hydroxyguanosine (80HG) in the hippocampus (APP/PS1 transgenic mice): significant decrease
- expression of heme-oxygenase-1 (HO-1) (APP/PS1 transgenic mice): no change
- total number and type of glial cells (hippocampus, IBA-1) (APP/PS1 transgenic mice): remained constant
- expression of 4-hydroxy-2-nonenal (HNE) (APP/PS1 transgenic mice; vs saline): significant decrease
- expression of GFAP in the hippocampus (APP/PS1 transgenic mice; listed as AM24): no change; also recorded: no differences were detected
- hippocampal amyloid plaques (APP/PS1 transgenic mice; listed as AM24): no decrease; also recorded: no differences were detected
